Source: PubChem BioAssay AID2060903 (Molecular Pharmacology Branch, DTP, NCI, 2025)

Test system: 377384-186-R-J1-PDC complex spheroid viability
Test: Anticancer human tumor 377384-186-R-J1-PDC patient-derived pancreatic carcinoma cell line growth inhibition [RAS]
Details: for IC50: curve of first compound; for viability, T/C: stronger effect = lower value; active = viability on the fitted dose curve at most 10% of control; inactive = the rest
From the text: RAS pathway inhibitors in Combinations in Complex Spheroids
A high-throughput screen of multi-cell type tumor spheroids was designed to identify active combinations of RAS pathway inhibitors and targeted small molecules. Complex spheroids include a stromal component modeled by human endothelial cells (HUVEC) and fibroblasts modeled by human mesenchymal stem cells (MSCs). The concentration ranges selected for each drug and investigational agent were based upon clinically achievable concentrations if the clinical Cmax of the agent was known.
Compounds. The drugs and investigational agents: abemaciclib (NSC768073), cobimetinib (NSC768068), divarasib (GDC6063, NSC841802), docetaxel (NSC628503), GDC-1971 (RLY-1971, NSC841576), gemcitabine (NSC613327), inavolisib (NSC800729), ipatasertib (NSC767898), KB-0742 (NSC834161), MRTX-1133 (NSC836407), osimertinib (NSC779217), RMC-4630 (NSC839698), RMC-6236 (NSC851965), RMC-6291 (NSC852671), Ro-3306 (NSC812927), sapanisertib (NSC764658), SN-38 (NSC673596), staurosporine (NSC755774), SY5609 (NSC837396), and tovorafenib (DAY101, NSC766906), were obtained from the National Cancer Institute (NCI) Developmental Therapeutics Program Chemical Repository. The FDA-approved anticancer drug set is available from the NCI Developmental Therapeutics Program. […] The stock solutions were prepared in dimethyl sulfoxide (DMSO, Sigma-Aldrich, St. Louis, MO, cat. D2650) at 800-fold the tested concentration and stored at -70 degrees C prior to their use. All drugs and investigational agents were tested over a range starting from a high concentration at or near the clinical Cmax and decreasing in half-log increments. If the clinical Cmax for an agent had not been determined, the highest concentration tested was 10 microM.
Cell Culture. All cells were maintained in an incubator at 37 degrees C and 5% CO2 with 95% humidity. The PDC lines were cultured according to standard operating procedures established by the NCI PDMR. All PDCs were thawed and cultured in Matrigel-coated flasks prepared with a working solution of 1X Ham's F-12 nutrient mix, without supplementation (Invitrogen, Waltham, MA, cat. 11765054), 100 U/mL penicillin-streptomycin (Invitrogen, cat. 15140122), and 2.5% Matrigel (Corning Inc., Corning, NY, cat. 354248) for the first three passages. The 362531-283-R-J2-PDC and 782815-120-R-J1-PDC lines were cultured in 6C/Colon 1B media, which includes advanced DMEM/F-12 (Thermo Fisher Scientific, cat. 12634028), 10 mM HEPES (Thermo Fisher Scientific, cat. 15630080), 1X GlutaMAX supplement (Thermo Fisher Scientific, cat. 35050061), 0.1 mg/mL primocin (InvivoGen, San Diego, CA, cat. ant-pm-2), 10% defined fetal bovine serum, heat inactivated (HyClone Laboratories Inc., Logan, UT, cat. SH30070.03HI), 50% L-WRN conditioned media (ATCC, cat. CRL-3276), 1.25 mM N-Acetyl-L-cysteine (Sigma-Aldrich, cat. A9165), 10 mM nicotinamide (Sigma-Aldrich, cat. N0636), 1X B-27 supplement (Thermo Fisher Scientific, cat. 17504044), 1X N-2 supplement (Thermo Fisher Scientific, cat. 17502048), 50 ng/mL human EGF (Thermo Fisher Scientific, cat. PHG0311), and 10 microM Y-27632 dihydrochloride (Tocris Bioscience, cat. 1254). The K12877-001-R-J1-PDC line was cultured in 6I media, which includes all 6C/Colon 1B media plus 10 ng/mL human FGF-10 (PeproTech, cat. 100-26), 1 ng/mL human FGF-2 (PeproTech, cat. 100-18B), 1 µM prostaglandin E2 (Tocris Bioscience, cat. 2296), […] hydrocortisone (Sigma-Aldrich, cat. H4001), and […] bovine insulin (Sigma-Aldrich, cat. I6634). The K86415-001-R-J1-PDC line was cultured in 6D media, which includes all 6C/Colon 1B media components minus the L-WRN conditioned media. The 485176-168-R4-J1-PDC was cultured in PANC media, which includes all 6C/Colon 1B media plus 100 ng/mL human FGF-10 (PeproTech, cat. 100-26), 500 nM SB-431542 (Selleckchem, cat. S1067), and 10 nM gastrin (Tocris Bioscience, cat. 3006). […]
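Note: spheroids exposed to compounds for seven days before readout.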

CCN1CCN(Cc2ccc(Nc3ncc(F)c(-c4cc(F)c5nc(C)n(C(C)C)c5c4)n3)nc2)CC1 + C#Cc1c(F)ccc2cc(O)cc(-c3ncc4c(N5CC6CCC(C5)N6)nc(OCC56CCCN5CC(F)C6)nc4c3F)c12
inactive: viability, T/C (second compound 0.0316 µM, first compound 0.00316 µM) 21% | viability, T/C (second compound 0.0316 µM, first compound 0.01 µM) 18.9% | viability, T/C (second compound 0.0316 µM, first compound 0.0316 µM) 11.8% | viability, T/C (second compound 0.0316 µM, first compound 0.1 µM) 11.6% | viability, T/C (second compound 0.1 µM, first compound 0.00316 µM) 9.77%
< 3.16 nM: IC50 (second compound 0.0316 µM) | IC50 (second compound 0.1 µM) | IC50 (second compound 0.316 µM) | IC50 (second compound 1 µM) | IC50 (second compound 3.16 µM) | IC50 (second compound 10 µM)
active: viability, T/C (second compound 0.0316 µM, first compound 0.316 µM) 5.8% | viability, T/C (second compound 0.0316 µM, first compound 1 µM) 4.39% | viability, T/C (second compound 0.1 µM, first compound 0.01 µM) 9.8% | viability, T/C (second compound 0.1 µM, first compound 0.0316 µM) 8.49% | viability, T/C (second compound 0.1 µM, first compound 0.1 µM) 4.76% | viability, T/C (second compound 0.1 µM, first compound 0.316 µM) 3.64% | viability, T/C (second compound 0.1 µM, first compound 1 µM) 2.94% | viability, T/C (second compound 0.316 µM, first compound 0.00316 µM) 3.83% | viability, T/C (second compound 0.316 µM, first compound 0.01 µM) 3.75% | viability, T/C (second compound 0.316 µM, first compound 0.0316 µM) 3.3% | viability, T/C (second compound 0.316 µM, first compound 0.1 µM) 2.21% | viability, T/C (second compound 0.316 µM, first compound 0.316 µM) 2.67% | viability, T/C (second compound 0.316 µM, first compound 1 µM) 2.17% | viability, T/C (second compound 1 µM, first compound 0.00316 µM) 2.87% | viability, T/C (second compound 1 µM, first compound 0.01 µM) 2.26% | viability, T/C (second compound 1 µM, first compound 0.0316 µM) 2.11% | viability, T/C (second compound 1 µM, first compound 0.1 µM) 1.55% | viability, T/C (second compound 1 µM, first compound 0.316 µM) 2.1% | viability, T/C (second compound 1 µM, first compound 1 µM) 2.53% | viability, T/C (second compound 3.16 µM, first compound 0.00316 µM) 1.72% | viability, T/C (second compound 3.16 µM, first compound 0.01 µM) 1.78% | viability, T/C (second compound 3.16 µM, first compound 0.0316 µM) 1.26% | viability, T/C (second compound 3.16 µM, first compound 0.1 µM) 1.41% | viability, T/C (second compound 3.16 µM, first compound 0.316 µM) 1.98% | viability, T/C (second compound 3.16 µM, first compound 1 µM) 1.76% | viability, T/C (second compound 10 µM, first compound 0.00316 µM) 1.13% | viability, T/C (second compound 10 µM, first compound 0.01 µM) 1.55% | viability, T/C (second compound 10 µM, first compound 0.0316 µM) 0.87% | viability, T/C (second compound 10 µM, first compound 0.1 µM) 0.72% | viability, T/C (second compound 10 µM, first compound 0.316 µM) 0.67% | viability, T/C (second compound 10 µM, first compound 1 µM) 0.32%
